Values of other authors in publication PMC9441020 (Journal of medicinal chemistry, 2022).

O=C(O)c1nc(-c2cccs2)nc(O)c1O [compound 10, 5-Hydroxy-6-oxo-2-(thiophen-2-yl)-1,6-dihydropyrimidine-4-carboxylic acid]
inhibition of HCV NS5B (HCV NS5B): effectively inhibiting | inhibition of HIV-1 INST (HIV-1 INST): did not inhibit

O=C(NCc1ccccc1)c1nc(-c2cccs2)nc(O)c1O [compound 11, N-Benzyl-5-hydroxy-6-oxo-2-(thiophen-2-yl)-1,6-dihydropyrimidine-4-carboxamide]
inhibition of HCV NS5B (HCV NS5B): without significantly inhibiting | inhibition of HIV-1 INST (HIV-1 INST): potently inhibited
